# Measurements published in patent publication US20240270762A1, “PENICILLIN-BINDING PROTEIN INHIBITORS” (priority 2021, published 2024).
# Assays:
# [1] = molecular target: T1, PBP3 from Pseudomonas aeruginosa (PAO1) (Pseudomonas aeruginosa, UniProt G3XD46); assay: Bocillin-FL fluorescence polarization competition binding, P. aeruginosa PBP3; conditions: Binding affinity to P. aeruginosa PBP3; fluorescence polarization competition binding assay using Bocillin-FL; read-out: P. aeruginosa PBP3 Potency
# T1 construct: made in house
# T1 sequence (G3XD46 whole entry): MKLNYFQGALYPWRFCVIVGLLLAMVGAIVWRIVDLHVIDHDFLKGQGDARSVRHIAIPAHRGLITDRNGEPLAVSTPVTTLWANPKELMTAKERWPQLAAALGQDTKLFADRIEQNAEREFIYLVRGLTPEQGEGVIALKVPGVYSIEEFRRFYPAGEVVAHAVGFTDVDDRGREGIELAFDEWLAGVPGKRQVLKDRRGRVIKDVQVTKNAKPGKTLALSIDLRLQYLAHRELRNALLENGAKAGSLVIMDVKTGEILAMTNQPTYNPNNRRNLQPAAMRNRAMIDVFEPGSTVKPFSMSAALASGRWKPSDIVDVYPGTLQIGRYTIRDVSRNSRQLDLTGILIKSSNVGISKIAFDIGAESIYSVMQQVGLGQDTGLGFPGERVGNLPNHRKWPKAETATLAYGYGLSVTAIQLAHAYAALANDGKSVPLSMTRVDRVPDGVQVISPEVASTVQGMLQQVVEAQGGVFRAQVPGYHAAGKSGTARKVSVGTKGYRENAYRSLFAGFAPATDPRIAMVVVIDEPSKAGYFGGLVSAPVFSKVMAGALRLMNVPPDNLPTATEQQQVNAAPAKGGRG
# Procedure, shortened: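 Purified PBP was preincubated with inhibitor (E. coli PBP3 1.5 μM, 30 min; P. aeruginosa PBP3 0.75 μM, A. baumannii PBP3 0.2 μM and PBP1a 1 μM, 15 min), then Bocillin-FL (0.1 μM; 0.05 μM for PBP1a) added and FP read up to 60 min. EC50 = 50% loss of bound probe.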
# E. coli AG100 = assay: microbe, parasite or virus in culture; assay type: cell-based; conditions: Escherichia coli, AG100, read-out: MIC E. coli AG100
# K. pneumoniae 848844 = assay: microbe, parasite or virus in culture; assay type: cell-based; conditions: Klebsiella pneumoniae, 848844, read-out: MIC K. pneumoniae 848844
# P. aeruginosa ATCC 27853 = assay: microbe, parasite or virus in culture; assay type: cell-based; conditions: Pseudomonas aeruginosa, ATCC27853, read-out: MIC P. aeruginosa ATCC 27853
# [2] = test system: P. aeruginosa (ΔmexAB-oprM); assay: Broth microdilution MIC in CAMHB; assay type: cell-based; conditions: Pseudomonas aeruginosa; read-out: MIC P. aeruginosa ΔmexAB-oprM
# N. gonorrhoeae FA1090 = assay: Liquid broth MIC in Fastidious broth; conditions: Neisseria gonorrhoeae, FA1090, read-out: Minimum Inhibitory Concentration (MIC), N. gonorrhoeae FA 1090
# N. gonorrhoeae WHO G = assay: Liquid broth MIC in Fastidious broth; conditions: Neisseria gonorrhoeae, read-out: Minimum Inhibitory Concentration (MIC), N. gonorrhoeae WHO G
# Procedure: Additional antibacterial testing of the series was performed in 8 reference strains of N. gonorrhoeae (ATCC 49226, FA1090, MS 11, WHO G, WHO L, WHO M, WHO K, WHO X, WHO Z, WHO Q, CDC-0197). ATCC 49226, FA1090, MS11, WHO G, WHO L, and WHO M produce wild type or wild-type like PBP2. WHO K, WHO X, WHO Z, WHO Q, and CDC-0197 produce mosaic PBP2. Liquid broth-based assays were used for antibacterial testing of PBP inhibitors in Neisseria gonorrhoeae. Briefly, cryo-preserved bacterial cultures of clinical strains were streaked for isolation on Chocolate Agar (72 g/L (2×) GC Agar Base (BD #228950) and 2% (2×) Hemoglobin was autoclaved at 121° C. for 20 minutes to sterilize. Once cooled to ˜50° C. the 2×GC Agar Base and 2× Hemoglobin solutions are combined and 1% IsoVitaleX Enrichment (BD #211876) was added to the solution). Strains were incubated at 36° C. and 5% CO2 to allow growth of colonies, 24 hours before inoculum preparation. 2-fold serial dilutions of test compounds were conducted in a 96 well plate with a final volume of 75 μL per well at 2-fold the final desired concentration in Fastidious broth (Remel #R07664). For preparation of assay inoculum, a direct suspension was prepared by aseptically swabbing 10-15 colonies from agar plates into culture tubes containing 2 mL of fresh sterile saline. After the dilution plates were set up, direct suspensions were then diluted in a cuvette containing sterile saline and the optical density was measured at 600 nm. Inocula were diluted such that 75 μL of this culture in Fastidious broth results in a starting bacterial concentration of 5×10^5 CFU/mL when added to the dilution plates. The plates were incubated for ˜24 hours at 36° C. and 5% CO2.
# N. gonorrhoeae WHO X = assay: Liquid broth MIC in Fastidious broth; conditions: Neisseria gonorrhoeae, read-out: Minimum Inhibitory Concentration (MIC), N. gonorrhoeae WHO X
SMILES,IC50 [1] [µM],MIC (E. coli AG100) [µg/mL],MIC (K. pneumoniae 848844) [µg/mL],MIC (P. aeruginosa ATCC 27853) [µg/mL],MIC [2] [µg/mL],MIC (N. gonorrhoeae FA1090) [µg/mL],MIC (N. gonorrhoeae WHO G) [µg/mL],MIC (N. gonorrhoeae WHO X) [µg/mL]
"CCN1CCN(C(=O)N[C@@H](C(=O)N[C@H]2Cc3cccc(C(=O)O)c3OB2O)c2ccc(P(C)(=O)O)cc2)C(=O)C1=O (single isomer, unassigned) [Example 47]",< 10,8 to 16,> 128,> 128,8 to 16,< 1,< 1,4 to 8
"CCN1CCN(C(=O)NC(C(=O)N[C@H]2Cc3cccc(C(=O)O)c3OB2O)c2ccc(P(=O)(O)O)c(O)c2)C(=O)C1=O (stereo partly drawn) [Example 21, (3R)-3-(2-(4-ethyl-2,3-dioxopiperazine-1-carboxamido)-2-(3-hydroxy-4-phosphonophenyl)acetamido)-2-hydroxy-3,4-dihydro-2H-benzo[e][1,2]oxaborinine-8-carboxylic acid]",< 10,8 to 16,> 128,8 to 16,32 to 64,< 1,< 1,< 1
"CS(=O)(=O)N1CCN(C(=O)NC(C(=O)N[C@H]2Cc3cccc(C(=O)O)c3OB2O)c2ccc(P(=O)(O)O)c(F)c2O)C1=O (stereo partly drawn) [Example 48, (3R)-3-(2-(3-fluoro-2-hydroxy-4-phosphonophenyl)-2-(3-(methylsulfonyl)-2-oxoimidazolidine-1-carboxamido)acetamido)-2-hydroxy-3,4-dihydro-2H-benzo[e][1,2]oxaborinine-8-carboxylic acid]",10 to 50,> 128,> 128,> 128,> 128,< 1,< 1,16 to 32
"O=C(O)c1cccc2c1OB(O)[C@@H](NC(=O)C(NC(=O)C(F)(F)F)c1ccc(P(=O)(O)O)cc1)C2 (stereo partly drawn) [Example 172, (3R)-2-hydroxy-3-(2-(4-phosphonophenyl)-2-(2,2,2-trifluoroacetamido)acetamido)-3,4-dihydro-2H-benzo[e][1,2]oxaborinine-8-carboxylic acid]",50 to 250,> 128,> 128,> 128,> 128,4 to 8,16 to 32,16 to 32
"CS(=O)(=O)N1CCN(C(=O)NC(C(=O)N[C@H]2Cc3cccc(C(=O)O)c3OB2O)c2ccc(P(=O)(O)O)c(Cl)c2)C1=O (stereo partly drawn) [Example 11, (3R)-3-(2-(3-chloro-4-phosphonophenyl)-2-(3-(methylsulfonyl)-2-oxoimidazolidine-1-carboxamido)acetamido)-2-hydroxy-3,4-dihydro-2H-benzo[e][1,2]oxaborinine-8-carboxylic acid]",< 10,32 to 64,> 128,> 128,32 to 64,< 1,< 1,1 to 2
"O=C(O)c1cccc2c1OB(O)[C@@H](NC(=O)C(NC(=O)c1ncccc1Cl)c1ccc(P(=O)(O)O)cc1)C2 (stereo partly drawn) [Example 183, (3R)-3-(2-(3-chloropicolinamido)-2-(4-phosphonophenyl)acetamido)-2-hydroxy-3,4-dihydro-2H-benzo[e][1,2]oxaborinine-8-carboxylic acid]",< 10,> 128,> 128,> 128,> 128,1 to 2,4 to 8,16 to 32
"O=C1CC[C@@H](C(=O)NC(C(=O)N[C@H]2Cc3cccc(C(=O)O)c3OB2O)c2ccc(P(=O)(O)O)cc2)N1 (stereo partly drawn) [Example 64, (3R)-2-hydroxy-3-(2-((S)-5-oxopyrrolidine-2-carboxamido)-2-(4-phosphonophenyl)acetamido)-3,4-dihydro-2H-benzo[e][1,2]oxaborinine-8-carboxylic acid]",50 to 250,> 128,> 128,> 128,> 128,4 to 8,4 to 8,16 to 32
"CN1CCC[C@@H]1C(=O)N[C@@H](C(=O)N[C@H]1Cc2cccc(C(=O)O)c2OB1O)c1ccc(P(=O)(O)O)cc1 (racemic) [Example 54, (R)-2-hydroxy-3-((S)-2-((R)-1-methylpyrrolidine-2-carboxamido)-2-(4-phosphonophenyl)acetamido)-3,4-dihydro-2H-benzo[e][1,2]oxaborinine-8-carboxylic acid and (R)-2-hydroxy-3-((R)-2-((R)-1-methylpyrrolidine-2-carboxamido)-2-(4-phosphonophenyl)acetamido)-3,4-dihydro-2H-benzo[e][1,2]oxaborinine-8-carboxylic acid]",50 to 250,> 128,> 128,> 128,> 128,4 to 8,16 to 32,16 to 32
